“And” between values parts separate entries of the source, which are not always exact repeats. Equal entries are not always repeated. “Also recorded” adds a separate entry of the source. Where two headings read alike, the source gives them in different places.
How the values were obtained:
Type in all cases: cell-based
[1] = system: human cannabinoid receptor type II (CB2R); assay: cell-based; conditions: for receptor bias CB2R versus CB1R: dual biosensor screen at 1 μM
Description: (§1) To efficiently transduce signals from the human machinery to the yeast pathway, the yeast 5 C-terminal residues of the G-alpha gene GPA1 were replaced with the sequence of the Gαi3 human G-alpha variant as previously described (Brown et al. 2000). ZsGreen1 was used to report on the activity of the pathway, integrating it into the genome in place of the pheromone-inducible Fig1 gene (FIG. 14A).
(§2) Yeast colonies were picked and grown overnight to saturation in pH 5.8 SD-His media in a 2.2 mL deep well plate (Axygen) grown in a plate-shaking incubator (30° C., 1000 rpm, 3 mm orbital). In the morning cultures were diluted 1:10 or 1:25 in SD-His media buffered to pH 7.1 with 100 mM MOPSO (unless otherwise specified). Ligands were added to the culture and incubated with shaking for 8 hours. Cells were then washed three times with ice-cold Tris buffer (pH 7) and diluted 1:20 for cytometry. All cytometry was performed on a Sony SA3800 spectral analyzer. Each sample was tested for 10,000 events, and read at a rate of 1,000 events per second. All assays as reported here were filtered only for singlet populations.

[2] = target: human cannabinoid receptor type II (CB2R) (Homo sapiens, UniProt P34972); assay: cell-based; set-up: Normalized Activity at 1 μM, CB2R; other: PINACA compounds, 1 μM; Normalized Activity at 1 μm, CB2R; other: 5-fluoro PB-22 isomers, 1 μm; other: MFα-CB2R, ST03 sterol strain, pH 5.8; activity against CB2R; other: at 10 nM, dose response; preference at CB2R of ADB-BINACA over AB-PINACA; signaling at CB2R in synthetic cannabinoid screen; fused on or other part: yeast mating factor alpha (MFα) pre-pro leader fused at the N-terminus as a trafficking signal; conditions: for EC50: MFα-CB2R, ST03 sterol strain, pH 5.8; for signaling at CB2R in synthetic cannabinoid screen: compounds at 1 μM; for Normalized Activity at 1 μm, CB2R: 5-fluoro PB-22 isomers; for Normalized Activity at 1 μM, CB2R: PINACA compounds
Chain of human cannabinoid receptor type II (CB2R) (Homo sapiens, UniProt P34972) (P34972 whole entry, the tested form may be a part): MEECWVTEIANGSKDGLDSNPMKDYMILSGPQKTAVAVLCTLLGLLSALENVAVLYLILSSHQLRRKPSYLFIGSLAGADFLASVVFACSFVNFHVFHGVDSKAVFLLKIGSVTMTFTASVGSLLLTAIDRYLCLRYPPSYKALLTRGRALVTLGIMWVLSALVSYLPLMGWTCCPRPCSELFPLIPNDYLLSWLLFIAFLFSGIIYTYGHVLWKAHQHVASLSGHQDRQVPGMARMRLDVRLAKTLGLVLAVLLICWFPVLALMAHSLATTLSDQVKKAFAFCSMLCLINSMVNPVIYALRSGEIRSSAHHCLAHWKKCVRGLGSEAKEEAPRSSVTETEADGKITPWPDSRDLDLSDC
Description: as §1, §2

[3] = target: T1, human Cannabinoid Receptor 1 (CB1R) (Homo sapiens, UniProt P21554); conditions: for Normalized Activity at 1 μm, CB1R: 5-fluoro PB-22 isomers; for EC50 at CB1R, synthetic cannabinoid dose response / EC50: syn-prepro-Δ89-CB1R, wild type ergosterol strain; for EC50: read-out: EC50 at CB1R, synthetic cannabinoid dose response; for Normalized Activity at 1 μM, CB1R: PINACA compounds; for signaling at CB1R in terpene screen: terpenes at 100 μM, normalized to 100 μM ACEA; for relative fluorescence of the ACEA positive control at CB1R: compounds at 10 nM, 100 μM ACEA control; for maximal signaling in CB1R dose response: dose-response curves
T1 construct: syn-prepro (synthetic yeast pre-pro secretion leader) (N); expressed in transfected cells; host or cells: Saccharomyces cerevisiae BY4741-derived strain (ste2, sst2, far1 knocked out); Gpa1-Gαi3 chimera

[4] = system: human Cannabinoid Receptor 1 (CB1R)
[5] = read-out: EC50 at CB2R, dose response

O=C(Oc1cccc2cnccc12)c1cn(CCCCCF)c2ccccc12 [5-fluoro PB-22 5-hydroxyisoquinoline isomer]
fold by which CB2 is favored over CB1 ([1]; normalized activity at 1 μM, Table 3): roughly 2 fold
EC50 [2, 5]: 216 nM

O=C(Oc1ccc2cccnc2c1)c1cn(CCCCCF)c2ccccc12
Normalized Activity at 1 μm, CB1R [3]: 0.550

CC(C)[C@H](NC(=O)c1cn(Cc2ccccc2)c2ccccc12)C(N)=O [AB-BICA]
signaling at CB2R in synthetic cannabinoid screen [2]: poor CB2R signalers
signaling at CB1R in synthetic cannabinoid screen relative to 100 μM ACEA positive control ([3]; compounds at 1 μM): CB1R agonists

CC(C)(C)C(NC(=O)c1c2ccccc2nn1CCCCCF)C(N)=O (single isomer, unassigned; isomer 2) [5-fluoro ADB-PINACA isomer 2]
EC50 at CB1R, synthetic cannabinoid dose response [3]: low nanomolar range
EC50 [3]: 2.25 nM

O=C(Oc1cccc2ccncc12)c1cn(CCCCCF)c2ccccc12
Normalized Activity at 1 μm, CB2R [2]: 0.771

CN1CCCCC1Cn1cc(C(=O)c2cc([N+](=O)[O-])ccc2I)c2ccccc21 (stereo not shown) [AM-1241]
signaling at CB1R in synthetic cannabinoid screen relative to 100 μM ACEA positive control [3]: at most approximately half the relative fluorescence of the ACEA positive control

CCCCCCC(C)(C)c1cc(O)c2c(c1)OC(C)(C)[C@H]1CC=C(CO)C[C@H]21 [HU-211]
signaling at CB1R in synthetic cannabinoid screen relative to 100 μM ACEA positive control [3]: at most approximately half the relative fluorescence of the ACEA positive control

CC(C)[C@H](NC(=O)c1cn(CC2CCCCC2)c2ccccc12)C(N)=O [AB-CHMICA]
signaling at CB2R in synthetic cannabinoid screen [2]: poor CB2R signalers
signaling at CB1R in synthetic cannabinoid screen relative to 100 μM ACEA positive control ([3]; compounds at 1 μM): CB1R agonists

O=C(Oc1ccnc2ccccc12)c1cn(CCCCCF)c2ccccc12 [5-fluoro PB-22 4-hydroxyquinoline isomer]
factor by which CB1 is favored over CB2 [4]: ~3

CCCCCn1nc(C(=O)N[C@@H](CCCC)C(N)=O)c2ccccc21
Normalized Activity at 1 μM, CB2R [2]: 0.460
Normalized Activity at 1 μM, CB1R [3]: 0.735

CCCCC/C=C\C/C=C\C/C=C\C/C=C\CCCC(=O)NCCCl [ACEA]
EC50, dose response with CB1R [3]: low μM range
drop in sensitivity of Δ89 constructs compared to full-length counterparts [4]: 3.6-3.8 fold and 3.8 fold

CC(C)(C)C(NC(=O)c1cn(Cc2ccccc2)c2ccccc12)C(N)=O (stereo not shown)
Normalized Activity at 1 μM, CB2R [2]: 0.255
Normalized Activity at 1 μM, CB1R [3]: 0.842

CCCC(F)Cn1nc(C(=O)NC(C(N)=O)C(C)C)c2ccccc21 (stereo not shown)
Normalized Activity at 1 μM, CB2R [2]: 0.340
Normalized Activity at 1 μM, CB1R [3]: 0.632

CCC(F)CCn1cc(C(=O)C2C(C)(C)C2(C)C)c2ccccc21 (single isomer, unassigned) [XLR11 N-(3-fluoropentyl) isomer]
receptor bias CB2R versus CB1R [1]: CB2R-biased

C=C1CCC[C@]2(C)CC[C@@H](C(C)(C)O)C[C@@H]12 [β-Eudesmol]
signaling at CB1R at lower concentration ([3]; 10 μM, dose response): showed signaling
signaling at CB1R in terpene screen [3]: activate CB1R

CC(C)[C@H](NC(=O)c1nn(Cc2ccc(F)cc2)c2ccccc12)C(N)=O [AB-FUBINACA]
relative fluorescence of the ACEA positive control at CB1R [3]: strong signaling
signaling at CB1R in synthetic cannabinoid screen relative to 100 μM ACEA positive control ([3]; compounds at 1 μM): maximal fluorescence
maximal signaling in CB1R dose response [3]: high maximal signaling
EC50 [3]: 0.66 nM

O=C(Oc1ccnc2ccccc12)c1cn(CCCCCF)c2ccccc12 [drawing 16]
Normalized Activity at 1 μm, CB2R [2]: 0.247
Normalized Activity at 1 μm, CB1R [3]: 0.829

CCCCCn1c(O)c(N=NC(=O)c2ccccc2)c2ccc(OC)cc21 [MDA 77]
signaling at CB1R in synthetic cannabinoid screen relative to 100 μM ACEA positive control ([3]; compounds at 1 μM): at most approximately half the relative fluorescence of the ACEA positive control

CCCCCn1nc(C(=O)NC(C(N)=O)C(C)(C)C)c2ccccc21 (stereo not shown) [ADB-PINACA]
signaling at CB2R in synthetic cannabinoid screen [2]: high activity
relative fluorescence of the ACEA positive control at CB1R [3]: strong signaling
signaling at CB1R in synthetic cannabinoid screen relative to 100 μM ACEA positive control ([3]; compounds at 1 μM): maximal fluorescence
EC50 at CB1R, synthetic cannabinoid dose response [3]: low nanomolar range
EC50 [3]: 0.09 nM

O=C(Oc1ccc2cnccc2c1)c1cn(CCCCCF)c2ccccc12
Normalized Activity at 1 μm, CB2R [2]: 0.331

CCN(CC)CCN1C(=O)CN=C(c2ccccc2F)c2cc(Cl)ccc21 [Flurazepam]
signaling at CB1R in synthetic cannabinoid screen relative to 100 μM ACEA positive control ([3]; compounds at 1 μM): did not show strong signal; also recorded: does not strongly activate the CB1R

CC1(C)C(C(=O)c2cn(CCN3CCOCC3)c3ccccc23)C1(C)C [A-796260]
signaling at CB2R in synthetic cannabinoid screen [2]: among the top CB2R targets

CC(C)c1c(O)ccc2c1CC[C@H]1C(C)(C)CCC[C@]21C [Totarol]
EC50 ([2]; EC50 at CB2R, dose response): 485 nM
activity against CB2R ([2]; at 10 nM, dose response): active

COc1ccc(C(=O)c2c(C)n(CCN3CCOCC3)c3cc(Br)ccc23)cc1 [WIN54,461]
signaling at CB1R in synthetic cannabinoid screen relative to 100 μM ACEA positive control ([3]; compounds at 1 μM): at most approximately half the relative fluorescence of the ACEA positive control

CCCCCn1cc(-c2nc(CN(CC)CC)cs2)c2ccccc21 [PTI-1]
signaling at CB2R in synthetic cannabinoid screen [2]: poor CB2R signalers
signaling at CB1R in synthetic cannabinoid screen relative to 100 μM ACEA positive control ([3]; compounds at 1 μM): CB1R agonists

O=C(Oc1ccc2ccncc2c1)c1cn(CCCCCF)c2ccccc12
Normalized Activity at 1 μm, CB2R [2]: 0.339

Cc1c(C(=O)c2ccccc2)c(N)c(-c2ccccc2)n1Cc1ccc(Cl)cc1 [URB447]
signaling at CB1R in synthetic cannabinoid screen relative to 100 μM ACEA positive control ([3]; compounds at 1 μM): at most approximately half the relative fluorescence of the ACEA positive control

CCCCCn1nc(C(=O)N[C@H](C(N)=O)[C@@H](C)CC)c2ccccc21 (single isomer, unassigned)
Normalized Activity at 1 μM, CB2R [2]: 0.568
Normalized Activity at 1 μM, CB1R [3]: 0.753

O=C(Oc1ccc2ncccc2c1)c1cn(CCCCCF)c2ccccc12
Normalized Activity at 1 μm, CB2R [2]: 0.141
Normalized Activity at 1 μm, CB1R [3]: 0.500

CCCCCn1nc(C(=O)NC(C(N)=O)C(C)(C)C)c2ccccc21 (stereo not shown) [drawing 2]
Normalized Activity at 1 μM, CB2R [2]: 0.700
Normalized Activity at 1 μM, CB1R [3]: 0.590

CC1(C)C(C(=O)c2cn(CC3CCOCC3)c3ccccc23)C1(C)C [A-834735]
receptor bias CB2R versus CB1R [1]: CB2R-biased
EC50 [2, 5]: 7.42 nM

O=C(Oc1cncc2ccccc12)c1cn(CCCCCF)c2ccccc12
Normalized Activity at 1 μm, CB1R [3]: 0.570

CC(C)=CCCC(C)CCO (stereo not drawn) [(+)-β-Citronellol]
signaling at CB1R in terpene screen [3]: activate CB1R

CCC(C)(NC(=O)c1nn(Cc2ccc(F)cc2)c2ccccc12)C(N)=O (single isomer, unassigned; isomer 2) [AB-FUBINACA isomer 2]
maximal signaling in CB1R dose response [3]: lower response
EC50 [3]: 0.23 nM

COCCn1c(C)c(C)s/c1=N\C(=O)C1C(C)(C)C1(C)C [A-836339, 2,2,3,3-Tetramethyl-cyclopropanecarboxylic Acid [3-(2-Methoxy-ethyl)-4,5-dimethyl-3H-thiazol-(2Z)-ylidene]-amide]
EC50 [2, 5]: 16.3 nM

CCCC(NC(=O)c1nn(Cc2ccc(F)cc2)c2ccccc12)C(N)=O (single isomer, unassigned; isomer 1) [AB-FUBINACA isomer 1]
signaling at CB1R in synthetic cannabinoid screen relative to 100 μM ACEA positive control ([3]; compounds at 1 μM): greatest activity of all the isomers
maximal signaling in CB1R dose response [3]: high maximal signaling
EC50 [3]: 0.01 nM

O=C(Oc1cnc2ccccc2c1)c1cn(CCCCCF)c2ccccc12
Normalized Activity at 1 μm, CB1R [3]: 0.530

CCCCCn1nc(C(=O)N[C@H](C(N)=O)C(C)C)c2ccccc21 [drawing 1]
Normalized Activity at 1 μM, CB1R [3]: 0.550

CCC(F)CCn1nc(C(=O)NC(C(N)=O)C(C)C)c2ccccc21 (stereo not shown)
Normalized Activity at 1 μM, CB2R [2]: 0.310
Normalized Activity at 1 μM, CB1R [3]: 0.700

CCC(C(N)=O)N(C)C(=O)c1nn(Cc2ccc(F)cc2)c2ccccc12 (single isomer, unassigned; isomer 5) [AB-FUBINACA isomer 5]
signaling at CB1R in synthetic cannabinoid screen relative to 100 μM ACEA positive control ([3]; compounds at 1 μM): least GPCR activation
maximal signaling in CB1R dose response [3]: lower response
EC50 [3]: 15.9 nM

CCCCCn1nc(C(=O)NC(C)(C(N)=O)C(C)C)c2ccccc21 (stereo not shown)
Normalized Activity at 1 μM, CB2R [2]: 0.303
Normalized Activity at 1 μM, CB1R [3]: 0.810

CCCC(F)Cn1nc(C(=O)Oc2cccc3cccnc23)c2ccccc21 (stereo not shown)
Normalized Activity at 1 μm, CB2R [2]: 0.582
Normalized Activity at 1 μm, CB1R [3]: 0.531

Reference: patent US20250027072A1, “METHODS AND CO[…] TO ENGINEERED CANNABINOID RECEPTORS” (priority 2021, published 2025)
